Measurements taken from ChEMBL document CHEMBL1201862, “PubChem BioAssay data set” (2004).
Activity calls are given as the source filed them.

Tests used:
[1] = Late stage assay provider results from the probe development effort to identify inhibitors of the Plasmodium falciparum M18 Aspartyl Aminopeptidase (M18AAP): radiolabel-based cell-based dose response assay to identify compounds that inhibit P. falciparum growth in RBCs, Set 2..; type: functional
[2] = T. cruzi growth inhibition in host cells, dose response, cell-based, plate reader, dry powder, set 2 (AID 652275); type: functional
[3] = host muscle cell viability loss – plate reader, dry powder, counter-screen for T. cruzi inhibitor project, dose response (AID 651895); type: functional, cell-based
[4] = intracellular Chagas parasite inhibition in myoblasts – Tulahuen strain, L-6 host cells, dry powder, dose response (AID 651890); type: functional, cell-based
[5] = antimalarial activity against erythrocytic parasites – NF54 strain, plate reader, dry powder, dose response (AID 651889); type: functional, cell-based
[6] = African trypanosome bloodstream form growth inhibition – STIB900 strain, plate reader, dry powder, dose response (AID 651894); type: functional, cell-based
[7] = antileishmanial activity on axenic amastigotes – plate reader, dry powder, dose response (AID 651892); type: functional, cell-based
[8] = anti-trypanosomal activity in BESM host cells – imaging, CA-I/72 strain, bovine embryo skeletal muscle, dry powder, dose response (AID 651885); type: functional, cell-based
[9] = Trypanosoma cruzi replication inhibitors in host cells – cell-based, plate reader, dry powder samples, dose response (AID 651845); type: functional
[10] = viability loss in human hepatoma cells – cell-based, CellTiter-Glo luminescence, cherry-pick, set 2, cytotoxicity control, dose response (AID 743395); type: functional
[11] = biological target: T1, Corticotropin-releasing factor receptor 2/Corticotropin-releasing factor-binding protein (Homo sapiens, UniProt P24387+Q13324); experiment: activators of CRF receptor 2 with binding protein – uHTS hits, confirmation (AID 602473); type: functional; conditions: read-out: EC50_Mean
T1 sequence (Q13324 whole entry): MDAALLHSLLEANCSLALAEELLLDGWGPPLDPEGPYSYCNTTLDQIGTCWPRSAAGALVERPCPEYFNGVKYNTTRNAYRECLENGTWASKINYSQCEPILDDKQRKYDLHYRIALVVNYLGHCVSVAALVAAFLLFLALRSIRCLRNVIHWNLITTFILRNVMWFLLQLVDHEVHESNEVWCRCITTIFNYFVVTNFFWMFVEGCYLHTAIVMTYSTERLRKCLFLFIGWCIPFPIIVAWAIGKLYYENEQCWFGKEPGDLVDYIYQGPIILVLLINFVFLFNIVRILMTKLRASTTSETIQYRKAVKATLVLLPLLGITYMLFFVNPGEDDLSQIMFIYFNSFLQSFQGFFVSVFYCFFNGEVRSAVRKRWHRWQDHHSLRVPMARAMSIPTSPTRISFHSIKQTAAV
T1 sequence (P24387 whole entry): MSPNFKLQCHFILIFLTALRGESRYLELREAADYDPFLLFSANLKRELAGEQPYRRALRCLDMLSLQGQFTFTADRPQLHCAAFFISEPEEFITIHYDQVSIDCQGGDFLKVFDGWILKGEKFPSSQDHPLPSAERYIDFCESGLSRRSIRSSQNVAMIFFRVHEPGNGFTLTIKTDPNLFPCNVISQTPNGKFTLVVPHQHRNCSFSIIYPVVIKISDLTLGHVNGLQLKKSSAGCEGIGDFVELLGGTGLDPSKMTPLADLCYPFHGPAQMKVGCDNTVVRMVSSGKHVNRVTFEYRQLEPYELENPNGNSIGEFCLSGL

cells [12] = conditions: A549
[13] = viability loss in HepG2 liver cells – cell-based, ATP luminescence, cherry-pick, set 6, cytotoxicity control, dose response (AID 1053125); type: functional
[14] = ATP-based viability loss in HepG2 cells – cell-based, CellTiter-Glo luminescence, dry powder, set 3, cytotoxicity control, dose response (AID 720594); type: functional
[15] = ATP-based viability loss in HEK293T cells – cell-based, CellTiter-Glo luminescence, dry powder, set 2, cytotoxicity control, dose response (AID 720595); type: functional; conditions: HEK293
[16] = viability loss in A549 lung cancer cells – cell-based, cherry-picks, […], cytotoxicity control, dose response (AID 1053119); type: functional
[17] = blockers of FN fibrillogenesis by fibroblasts – AH1F cells, Alexa488-FN fluorescence, cherry-picks, dose response (AID 1035475); type: functional, cell-based
[18] = viability loss in HEK293 kidney cells – cell-based, cherry-picks, set 5, cytotoxicity control, dose response (AID 1053117); type: functional
[19] = biological target: Potassium channel subfamily K member 9 (Homo sapiens, UniProt Q9NPC2); experiment: KCNK9 flux blockade, concentration-response – cell-based, FluxOR thallium flux, selectivity assay for TASK1 inhibitor project, SAR follow-up (AID 652211); type: functional;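 note: potency is for inhibitors of the channel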
Potassium channel subfamily K member 9, sequence (Q9NPC2 whole entry): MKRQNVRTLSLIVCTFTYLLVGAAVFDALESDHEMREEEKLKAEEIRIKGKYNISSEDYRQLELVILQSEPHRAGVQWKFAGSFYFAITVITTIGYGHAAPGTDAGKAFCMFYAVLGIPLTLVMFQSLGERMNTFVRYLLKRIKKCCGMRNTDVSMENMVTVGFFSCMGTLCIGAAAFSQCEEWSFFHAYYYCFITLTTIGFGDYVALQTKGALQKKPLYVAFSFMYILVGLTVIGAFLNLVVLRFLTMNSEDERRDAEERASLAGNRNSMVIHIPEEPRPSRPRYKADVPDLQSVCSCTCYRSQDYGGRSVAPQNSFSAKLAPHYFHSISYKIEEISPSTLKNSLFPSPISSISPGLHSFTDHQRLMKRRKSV

[20] = biological target: Potassium channel subfamily K member 3 (Homo sapiens, UniProt O14649); experiment: inhibition of human KCNK3 channel flux – CHO cells, FluxOR thallium flux, SAR follow-up (AID 652212); type: functional
Potassium channel subfamily K member 3, sequence (O14649 whole entry): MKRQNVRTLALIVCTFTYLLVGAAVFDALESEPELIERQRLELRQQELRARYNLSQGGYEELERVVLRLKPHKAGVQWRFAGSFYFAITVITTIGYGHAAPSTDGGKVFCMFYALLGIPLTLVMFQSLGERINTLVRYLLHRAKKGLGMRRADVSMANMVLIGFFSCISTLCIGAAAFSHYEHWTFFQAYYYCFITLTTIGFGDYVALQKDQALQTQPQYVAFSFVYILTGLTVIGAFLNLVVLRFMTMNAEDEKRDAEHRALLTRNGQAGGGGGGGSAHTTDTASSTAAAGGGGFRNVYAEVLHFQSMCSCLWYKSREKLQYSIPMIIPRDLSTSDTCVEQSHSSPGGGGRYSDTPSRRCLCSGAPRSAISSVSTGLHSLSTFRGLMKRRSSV

[21] = biological target: T2, Methionyl-tRNA synthetase, putative (Trypanosoma brucei brucei, UniProt Q38C91); type: functional, Trypanosoma brucei brucei strain 927/4 GUTat10.1
T2 sequence (Q38C91 whole entry): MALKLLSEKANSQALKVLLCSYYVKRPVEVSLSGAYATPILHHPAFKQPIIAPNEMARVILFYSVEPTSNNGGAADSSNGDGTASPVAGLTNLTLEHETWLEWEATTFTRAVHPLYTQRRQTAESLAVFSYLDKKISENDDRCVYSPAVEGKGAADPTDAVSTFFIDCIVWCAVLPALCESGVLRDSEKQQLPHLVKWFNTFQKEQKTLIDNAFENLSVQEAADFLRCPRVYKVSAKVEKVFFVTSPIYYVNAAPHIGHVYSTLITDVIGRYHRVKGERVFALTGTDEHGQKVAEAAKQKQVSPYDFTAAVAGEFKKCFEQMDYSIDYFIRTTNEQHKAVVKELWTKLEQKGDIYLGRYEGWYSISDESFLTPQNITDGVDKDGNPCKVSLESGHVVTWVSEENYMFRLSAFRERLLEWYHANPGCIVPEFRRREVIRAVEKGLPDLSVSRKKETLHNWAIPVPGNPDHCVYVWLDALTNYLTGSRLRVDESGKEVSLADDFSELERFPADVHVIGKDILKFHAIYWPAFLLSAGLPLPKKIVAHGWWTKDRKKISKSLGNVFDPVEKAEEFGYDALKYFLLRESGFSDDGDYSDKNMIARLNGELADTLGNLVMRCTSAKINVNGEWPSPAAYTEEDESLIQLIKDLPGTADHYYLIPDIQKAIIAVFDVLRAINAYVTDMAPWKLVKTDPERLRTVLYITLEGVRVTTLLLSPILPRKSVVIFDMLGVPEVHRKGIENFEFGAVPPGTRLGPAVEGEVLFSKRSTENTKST

[22] = biological target: T2, Methionyl-tRNA synthetase, putative; type: functional, Trypanosoma brucei brucei strain 927/4 GUTat10.1; remark: listed apart in the source
[23] = Late stage counterscreen for inhibitors of Trypanosoma brucei methionyl tRNA synthetase (MetRS): Luminescence-based cell-based high throughput dose response assay to identify compounds that are cytotoxic to Jurkat human T lymphocyte cells.; type: functional
[24] = Counterscreen for inhibitors of Trypanosoma brucei methionyl tRNA synthetase (MetRS): Luminescence-based cell-based high throughput dose response assay to identify compounds that are cytotoxic to Jurkat human T lymphocyte cells.; type: functional
HeLa = experiment: viability loss in HeLa cells – cell-based, ATP luminescence, cherry-pick samples, cytotoxicity control, dose response (AID 687004); type: functional; conditions: Homo sapiens
HEK293 = experiment: viability loss in HEK293T cells – cell-based, ATP luminescence, cherry-pick samples, cytotoxicity control, dose response (AID 687005); type: functional; conditions: Homo sapiens;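 note: cells exposed to compound for 48 hours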
[25] = HEK293 Cytotoxicity Assay Measured in Cell-Based System Using Plate Reader - 7071-01_Inhibitor_Dose_CherryPick_Activity_Set2.; type: functional
cells [26] = experiment: cells
cells [27] = conditions: HEK293;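 note: cells exposed to compound for 48 hours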
[28] = biological target: 1-phosphatidylinositol 4,5-bisphosphate phosphodiesterase beta-3 (Homo sapiens, UniProt Q01970); experiment: Fluorescence-based biochemical high throughput dose response assay to identify inhibitors of phospholipase C isozymes (PLC-B3).
1-phosphatidylinositol 4,5-bisphosphate phosphodiesterase beta-3, sequence (Q01970 whole entry): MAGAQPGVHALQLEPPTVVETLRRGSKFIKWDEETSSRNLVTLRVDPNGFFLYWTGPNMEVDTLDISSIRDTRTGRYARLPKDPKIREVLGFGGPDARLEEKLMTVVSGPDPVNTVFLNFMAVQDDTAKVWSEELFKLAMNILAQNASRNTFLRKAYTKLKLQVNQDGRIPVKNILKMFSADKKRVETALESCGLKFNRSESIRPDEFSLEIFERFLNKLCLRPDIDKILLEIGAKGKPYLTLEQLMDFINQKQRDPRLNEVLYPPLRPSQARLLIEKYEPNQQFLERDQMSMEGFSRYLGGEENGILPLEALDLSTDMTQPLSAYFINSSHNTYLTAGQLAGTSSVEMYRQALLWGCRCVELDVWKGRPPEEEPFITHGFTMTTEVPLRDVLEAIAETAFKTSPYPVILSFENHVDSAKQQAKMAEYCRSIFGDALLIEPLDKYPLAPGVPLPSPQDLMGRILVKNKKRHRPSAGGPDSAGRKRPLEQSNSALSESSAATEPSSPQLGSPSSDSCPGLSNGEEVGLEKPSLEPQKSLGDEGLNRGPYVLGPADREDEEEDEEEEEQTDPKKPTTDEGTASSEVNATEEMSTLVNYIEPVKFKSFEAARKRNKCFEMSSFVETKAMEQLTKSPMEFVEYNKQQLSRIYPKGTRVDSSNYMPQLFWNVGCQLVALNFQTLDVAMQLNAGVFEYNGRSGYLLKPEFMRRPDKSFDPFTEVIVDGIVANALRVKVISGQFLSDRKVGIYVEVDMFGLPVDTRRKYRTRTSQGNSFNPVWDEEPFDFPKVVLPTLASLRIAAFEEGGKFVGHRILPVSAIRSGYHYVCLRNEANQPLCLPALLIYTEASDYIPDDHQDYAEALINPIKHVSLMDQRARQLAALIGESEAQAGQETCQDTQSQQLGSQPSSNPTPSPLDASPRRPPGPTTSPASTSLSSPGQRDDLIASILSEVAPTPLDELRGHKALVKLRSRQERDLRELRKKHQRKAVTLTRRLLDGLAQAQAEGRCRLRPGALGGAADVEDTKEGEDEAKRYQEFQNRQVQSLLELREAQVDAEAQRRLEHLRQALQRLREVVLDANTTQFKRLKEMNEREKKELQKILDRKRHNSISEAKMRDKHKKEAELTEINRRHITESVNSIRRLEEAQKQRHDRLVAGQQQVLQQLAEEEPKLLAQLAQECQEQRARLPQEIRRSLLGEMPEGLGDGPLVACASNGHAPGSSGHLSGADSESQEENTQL

[29] = biological target: 1-phosphatidylinositol 4,5-bisphosphate phosphodiesterase gamma-1 (Homo sapiens, UniProt P19174); experiment: Counterscreen for inhibitors of phospholipase C isozymes (PLC-B3): Fluorescence-based biochemical high throughput dose response assay to identify inhibitors of phospholipase C isozymes (PLC-gamma1).
[30] = biological target: Photoreceptor-specific nuclear receptor (Homo sapiens, UniProt Q9Y5X4); type: functional, cell-based;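 note: CHO-S cells with Gal4-NCOR and VP16-NR2E3 two-hybrid luciferase reporter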
Photoreceptor-specific nuclear receptor, sequence (Q9Y5X4 whole entry, the tested form may be a part): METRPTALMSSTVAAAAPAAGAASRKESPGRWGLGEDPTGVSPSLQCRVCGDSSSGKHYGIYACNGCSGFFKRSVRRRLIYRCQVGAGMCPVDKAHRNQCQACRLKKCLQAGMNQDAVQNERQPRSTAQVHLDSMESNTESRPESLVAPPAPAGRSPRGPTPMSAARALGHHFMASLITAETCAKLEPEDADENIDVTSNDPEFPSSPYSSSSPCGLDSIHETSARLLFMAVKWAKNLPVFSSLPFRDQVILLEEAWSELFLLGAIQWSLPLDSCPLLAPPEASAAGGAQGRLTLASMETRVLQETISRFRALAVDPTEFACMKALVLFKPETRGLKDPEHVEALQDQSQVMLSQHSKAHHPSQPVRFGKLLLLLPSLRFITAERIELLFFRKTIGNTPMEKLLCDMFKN

[31] = biological target: COUP transcription factor 2 (Homo sapiens, UniProt P24468); experiment: Luminescence-based cell-based high throughput dose response assay to identify inhibitors of COUP-TFII (NR2F2).; type: functional;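 note: HEK293 cells transiently cotransfected with COUP-TFII expression vector and reporter; luciferase reporter luminescence driven by COUP-TFII from the pX2-168 reporter plasmid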
COUP transcription factor 2, sequence (P24468 whole entry): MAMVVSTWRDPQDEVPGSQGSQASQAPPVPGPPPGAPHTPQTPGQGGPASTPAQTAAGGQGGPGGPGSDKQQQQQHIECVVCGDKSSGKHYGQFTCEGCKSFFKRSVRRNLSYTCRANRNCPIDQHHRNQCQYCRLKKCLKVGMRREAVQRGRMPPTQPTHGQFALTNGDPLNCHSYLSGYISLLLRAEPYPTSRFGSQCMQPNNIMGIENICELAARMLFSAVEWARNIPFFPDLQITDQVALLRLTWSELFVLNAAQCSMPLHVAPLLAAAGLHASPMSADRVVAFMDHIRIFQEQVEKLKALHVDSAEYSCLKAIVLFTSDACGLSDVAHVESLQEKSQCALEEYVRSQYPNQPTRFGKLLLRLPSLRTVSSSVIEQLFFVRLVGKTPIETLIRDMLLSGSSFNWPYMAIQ

Paired box protein Pax-8 = Paired box protein Pax-8 (Homo sapiens, UniProt Q06710); experiment: PAX8 transcriptional activity inhibition in RMG-I – RMG-I cells, luciferase, cherry-pick, dose response (AID 687027); type: functional, cell-based;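 note: luciferase reporter driven by Pax8 target thyroperoxidase promoter measured by SteadyGlo luminescence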
Paired box protein Pax-8, sequence (Q06710 whole entry): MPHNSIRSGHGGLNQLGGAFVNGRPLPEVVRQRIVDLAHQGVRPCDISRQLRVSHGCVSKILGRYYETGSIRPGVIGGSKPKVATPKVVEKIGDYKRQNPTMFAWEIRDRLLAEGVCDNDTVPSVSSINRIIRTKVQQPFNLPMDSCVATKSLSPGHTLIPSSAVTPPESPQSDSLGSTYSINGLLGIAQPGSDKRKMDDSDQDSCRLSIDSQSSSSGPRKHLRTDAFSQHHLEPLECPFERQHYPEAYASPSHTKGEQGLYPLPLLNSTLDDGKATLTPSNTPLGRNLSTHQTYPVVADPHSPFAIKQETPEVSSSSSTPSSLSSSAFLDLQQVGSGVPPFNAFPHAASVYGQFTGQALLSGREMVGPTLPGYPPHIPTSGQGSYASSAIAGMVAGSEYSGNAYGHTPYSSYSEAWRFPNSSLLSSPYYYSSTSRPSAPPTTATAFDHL

[32] = OVCAR-3 cell viability loss – plate reader, dry powder samples, PAX8 inhibitor project, dose response (AID 743044); type: functional, cell-based
[33] = IGROV1 cell killing – plate reader, dry powder samples, PAX8 inhibitor project, dose response (AID 743043); type: functional, cell-based; conditions: IGROV-1
[34] = toxicity toward immortalized ovarian surface epithelium – cell-based, plate reader, dry powder samples, cytotoxicity control for PAX8 inhibitor project, dose response (AID 743045); type: functional
[35] = A2780 cell killing – plate reader, dry powder samples, cytotoxicity control, dose response (AID 743046); type: functional, cell-based
[36] = biological target: Metabotropic glutamate receptor 5 (Rattus norvegicus, UniProt P31424); experiment: Identification of a glycine sulfonamide based non-MPEP site positive allosteric potentiator (PAM) of mGlu5 (calcium_assay).; type: functional
[37] = biological target: ATP-dependent translocase ABCB1 (Homo sapiens, UniProt P08183); experiment: P-gp JC-1 efflux blockers potency – Jurkat-DNR cells, flow cytometry, follow-up, dose response (AID 489002); type: functional
ATP-dependent translocase ABCB1, sequence (P08183 whole entry): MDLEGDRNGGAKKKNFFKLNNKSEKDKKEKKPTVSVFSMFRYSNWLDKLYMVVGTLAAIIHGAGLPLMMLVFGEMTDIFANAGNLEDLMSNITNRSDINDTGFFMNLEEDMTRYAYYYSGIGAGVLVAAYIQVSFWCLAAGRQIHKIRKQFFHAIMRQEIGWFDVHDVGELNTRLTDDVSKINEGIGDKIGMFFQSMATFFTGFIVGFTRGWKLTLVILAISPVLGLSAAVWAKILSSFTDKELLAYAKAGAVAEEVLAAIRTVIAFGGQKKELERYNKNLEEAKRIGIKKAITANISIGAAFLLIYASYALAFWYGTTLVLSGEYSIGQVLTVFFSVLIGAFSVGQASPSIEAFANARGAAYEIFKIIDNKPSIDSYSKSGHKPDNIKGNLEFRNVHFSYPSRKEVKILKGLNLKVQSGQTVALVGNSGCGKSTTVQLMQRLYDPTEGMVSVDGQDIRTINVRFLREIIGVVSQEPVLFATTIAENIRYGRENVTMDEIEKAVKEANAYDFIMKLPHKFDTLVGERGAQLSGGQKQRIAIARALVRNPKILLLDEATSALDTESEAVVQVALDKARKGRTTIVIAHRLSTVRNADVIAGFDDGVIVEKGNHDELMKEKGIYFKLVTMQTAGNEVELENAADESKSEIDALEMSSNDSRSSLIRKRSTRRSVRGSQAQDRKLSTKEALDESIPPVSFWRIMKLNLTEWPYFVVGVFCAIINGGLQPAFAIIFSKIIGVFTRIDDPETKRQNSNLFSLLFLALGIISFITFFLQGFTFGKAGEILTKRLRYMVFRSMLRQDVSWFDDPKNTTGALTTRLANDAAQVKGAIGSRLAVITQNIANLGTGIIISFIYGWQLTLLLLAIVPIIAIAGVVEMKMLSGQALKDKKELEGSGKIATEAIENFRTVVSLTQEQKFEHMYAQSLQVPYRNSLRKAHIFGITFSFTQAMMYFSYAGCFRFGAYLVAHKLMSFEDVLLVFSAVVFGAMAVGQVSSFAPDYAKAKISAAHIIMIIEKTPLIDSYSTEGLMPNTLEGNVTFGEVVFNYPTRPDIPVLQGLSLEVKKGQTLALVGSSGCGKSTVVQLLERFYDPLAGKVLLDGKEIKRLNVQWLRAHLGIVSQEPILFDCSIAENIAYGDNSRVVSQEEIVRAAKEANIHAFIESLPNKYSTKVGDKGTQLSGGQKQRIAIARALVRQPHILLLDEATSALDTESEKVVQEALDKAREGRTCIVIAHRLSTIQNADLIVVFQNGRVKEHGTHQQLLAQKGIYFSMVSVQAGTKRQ

COc1ccc(CCNC2CCN(Cc3ccccc3)CC2)cc1OC
IC50 [1]: 6.9 µM (active)

C[C@@H]1CN([C@@H](C)CO)C(=O)c2cccc(NC(=O)c3ccncc3)c2O[C@@H]1CN(C)Cc1ccc(Oc2ccccc2)cc1
AC50 [2]: 0.276 µM (active) | IC50 [3]: 47.6 µM (inactive) | IC50 [4]: 0.666 µM (active) | IC50 [5]: 0.873 µM (inactive) | IC50 [6]: 1.02 µM (inactive) | IC50 [7]: > 100 µM (inactive) | IC50 [8]: 0.55 µM (active) | AC50 [9]: 0.506 µM (active)

COc1ccc(NC(=O)c2cc(S(=O)(=O)N3CCOCC3)ccc2C)cc1S(=O)(=O)N1CCOCC1
AbsAC35_uM [10]: 36.86 µM

CCCCCCc1cc2cc(S(=O)(=O)c3ccc(F)cc3)c(=O)oc2cc1O
EC50 [11]: > 53 µM (inactive) | AC50 (cells [12]): 42.1 µM (active) | AC50 [13]: 50.4 µM (active)

CC1CCN(S(=O)(=O)c2ccc(C(=O)Nc3nnc(C4=COCCO4)o3)cc2)CC1
AC50 [14]: > 52 µM (inactive) | AC50 [15]: 48.7 µM (active)

CCOc1cccc(C(=O)Nc2ccc(N(CC)CC)cc2)c1
AC50 [16]: > 52 µM (inactive) | AC50 [17]: 64.4 µM (active) | AC50 [18]: 34.6 µM (active)

Cc1cccc(C(=O)Nc2cccc(NC(=O)C3CCCCC3)c2)c1
IC50 [19]: 11.9 µM (active) | IC50 [20]: 0.017 µM (active)

O=C(Nc1ccc(F)c(Cl)c1)C1CC(=O)n2c(nc3ccccc32)N1 (stereo not given)
IC50 [21]: 1.47 µM (active) | IC50 [22]: 2.34 µM (active) | IC50 [23]: > 83.3 µM (inactive) | IC50 [24]: 83.3 µM (inactive)

COc1ccc(CN(C)C[C@H]2Oc3ccc(NC(=O)Nc4ccc(F)cc4)cc3CC(=O)N([C@@H](C)CO)C[C@@H]2C)cc1
AC50 (HeLa): > 52 µM (inactive) | AC50 (HEK293): 26.3 µM (active) | AC50 [25]: 26.3 µM (active)

Cc1ccc2[nH]c3ccccc3c(=O)c2c1
AC50 (cells [26]): 7.34 µM (active) | AC50 (cells [27]): 38.6 µM (active)

CC/C(NCC1CCCO1)=C1/C(=O)NC(=O)N(Cc2ccccc2)C1=O (stereo not given)
IC50 [28]: > 122 µM (inactive) | IC50 [29]: > 122 µM (inactive)

OC[C@@H]1CN(Cc2ccc(-c3ccccc3)cc2)C[C@H](n2cnc3c(NCc4ccncc4)ncnc32)O1
IC50 [30]: 1.52 µM (active) | IC50 [31]: 10 µM (inactive)

C[C@@H]1CN([C@H](C)CO)C(=O)c2cc(NC(=O)Nc3ccc(C(F)(F)F)cc3)ccc2O[C@@H](C)CCCCO[C@@H]1CN(C)Cc1ccncc1
AC50 (Paired box protein Pax-8): 4.21 µM (active) | AC50 [32]: 14.8 µM (active) | AC50 [33]: 41.8 µM (active) | AC50 [34]: 56.4 µM (active) | AC50 [35]: 56.9 µM (active)

CS(=O)(=O)N1c2ccccc2CCC1C(=O)Nc1cccnc1 (stereo not given)
EC50 [36]: 3.62 µM

O=C(Nc1ccccc1)C1CCN(c2cc(-c3ccco3)nc3cc(-c4ccccc4)nn23)CC1
EC50 [37]: 0.1399 µM
